Test [1] concerns Mouse triple negative breast cancer cells 4T1 and mouse colorectal cancer cells CT26. In words: BNCT-enhancing effect using mouse allograft tumor model. Type of test: in vivo, BALB/c mice. The note with it: Group 1: 400 mg/kg L-[10B]BPA i.v., then compound 25 mg/kg i.v. after 1 and 1.5 hours; neutron rays 5 MW for 30 minutes. The procedure: Mouse triple negative breast cancer cells 4T1 and mouse colorectal cancer cells CT26 were plate-cultured and then transplanted subcutaneously into the lower limbs of BALB/c mice. After 1 week, 400 mg/kg of L-[10B]BPA or a solvent as a control was intravenously administered through the tail vein. In Group 1, the compound of Example 1-45 was administered intravenously at a dose of 25 mg/kg after 1 hour and 1.5 hours from the administration of L-[10B]BPA. In Group 2, the solvent was administered instead of L-[10B]BPA, and after 1 hour and 1.5 hours, the compound of Example 1-45 obtained in the present invention was administered intravenously at a dose of 25 mg/kg. In Group 3, the solvent was administered intravenously instead of the compound of Example 1-45 after 1 hour and 1.5 hours from the administration of L-[10B]BPA. For Groups 1, 2, and 3, the lower limbs were irradiated with neutron rays under anesthesia after 2.5 hours from L-[10B]BPA administration or solvent administration as the control (5 MW for 30 minutes). The tumors were excised after 11 days from irradiation and the volumes thereof were compared.

The target of test [2] is T1, human LAT1 (Homo sapiens, UniProt Q01650). In words: [14C]L-leucine uptake inhibition test using human-LAT1 stably expressing HEK293 cell line. Type of test: cell-based. Further details: having full-length cDNA of human LAT1 or LAT2 inserted under a promoter of CMV; expressed in transfected cells; key to Assay Data: degree of [14C]L-leucine uptake inhibition compared with BCH: a test compound having a higher inhibitory effect than BCH is denoted by A; a test compound having the same inhibitory effect as BCH is denoted by B; a test compound having a lower inhibitory effect than BCH is denoted by C. Particulars: for Assay Data: degree of [14C]L-leucine uptake inhibition compared with BCH: compound (racemic form) and BCH at 0.1, 1.0, 10 μM, 1 μM [14C]L-leucine, 1 minute, Na+-free HBSS; for LAT1 inhibitory effect, compounds singled out (in words): same test as Table 1. From the text: HEK293 cells stably expressing human LAT1 and LAT2 were produced, respectively.
A shuttle vector DNA (LAT1: pcDNA3.1(+) -hLAT1, LAT2: pcDNA3.1(+) -hLAT2; expression vector pcDNA3.1 (+) was produced by Invitrogen Corp.) having ampicillin and neomycin resistance markers and having full-length cDNA of human LAT1 or LAT2 inserted under a promoter of CMV (cytomegalovirus) was constructed. This vector was transfected into the HEK293 cells by a method using Lipofectamine (registered trademark) 2000 (Invitrogen Corp.) according to the manufacturer's instructions. Thereafter, stably expressing cell clones of transgene were selected by a limiting dilution method in the presence of 0.9 mg/mL of Geneticin (registered trademark), and among the obtained cell clones, cell clones having a high uptake of [^14C]L-leucine and maintaining stable expression even after 10 passages were obtained. These cells were used for evaluating affinity and selectivity for LAT1 and LAT2.
1-1. It has been confirmed that LAT1 is responsible for L-leucine uptake in the absence of sodium ions in the human-LAT1 stably expressing HEK293 cell line. The human-LAT1 stably expressing HEK293 cell line was seeded in a 24-well plate at 1×10^5 Cell/Well, and the [^14C]L-leucine uptake inhibition test using the compound was performed after 48 hours. After the medium was removed and the cells were washed with Hank's balanced salt solution (Na^+-free HBSS) not containing sodium ions, the cells were cultured in Na^+-free HBSS for 10 minutes. Thereafter, 1 μM of [^14C]L-leucine was taken up in Na^+-free HBSS in the presence of a test compound (0.1, 1.0, 10, 0 μM in each case), which is a racemic form, for 1 minute, and then the cells were washed three times with ice-cooled Na^+-free HBSS. To the well, 500 μL of 1 M NaOH was added, and after 30 minutes, the cells were lysed, and the cell lysate was collected. The amount of [^14C]L-leucine in the cell lysate was determined using a liquid scintillator. The amount of protein in the cell lysate was measured using BCA Assay Kit (Thermofisher Scientific), and the uptake amount of [^14C]L-leucine per 1 mg of protein in the cell per minute was calculated.
The degree of LAT1 inhibition of the compound obtained in the present invention was compared with BCH (BCH, 2-aminobicyclo-(2,2,1)-heptane-2-carboxylic acid), which is an existing LAT1 inhibitor. In the [^14C]L-leucine uptake inhibition test described above, the degrees of inhibition of [^14C]L-leucine uptake inhibition using the compound (racemic form) obtained in Examples and BCH (0.1, 1.0, 10, 0 μM for both) were compared. […] In the table, a test compound having a higher inhibitory effect than BCH is denoted by A, a test compound having the same inhibitory effect as BCH is denoted by B, and a test compound having a lower inhibitory effect than BCH is denoted by C.

Test [3] concerns the target T1, human LAT1. Kind of test: Leucine uptake persistence inhibitory effect after compound removal in human-LAT1 highly expressing cell line. The note with it: 20 μM compound for 30 minutes, removed, uptake measured 30 minutes later. The format is cell-based. The procedure:
The uptake of [^14C]L-leucine remaining after the compound of the present invention was caused to act in advance and removed in the human-LAT1 highly expressing cell line was examined. In the same manner as in the uptake inhibition test, the cell line was seeded in a 24-well plate, and an MEM (Minimum Essential Medium) medium containing 20 μM of the compound (racemic form) was added to the wells and allowed to act for 30 minutes. An MEM medium containing no compound was used as a control. After the compound was caused to act, the cells were washed 3 times with the MEM medium and cultured in the MEM medium for an additional 30 minutes. Thereafter, washing was performed 3 times with Na^+Free-HBSS, and 1 μM of [^14C]L-leucine dissolved in Na^+Free-HBSS was taken up for 1 minute. The cells were washed 3 times with ice-cooled Na^+Free-HBSS, and the amount of [^14C]L-leucine taken up in the cells was determined with a liquid scintillator. In the same manner as in other tests, the amount of protein in the cell fluid was measured, and the uptake amount of [^14C]L-leucine per 1 mg of protein in the cell fluid per minute was determined.

Test [4] deals with Mouse colorectal cancer-derived CT26 cells. In words: Cell proliferation inhibitory effect using mouse colorectal cancer cells (CCK-8 assay). The format is cell-based. The note with it: 72 hours compound treatment, read-out: Evaluation of IC50 (proliferation inhibition rate of 50%). The procedure:
Mouse colorectal cancer-derived CT26 cells were adjusted to […], seeded in a 96-well plate at 1000 cells/well, and cultured in a 10% fetal bovine serum-added RPMI 1640 medium at 5% CO2 and 37° C. The culture medium was changed 24 hours after the start of the culture, and the medium containing the compound of Example was replaced to examine the action of the compound on cell proliferation. As the compound, a concentration of 0.01, 0.03, 0.1, 0.3, 1, 3, 10, or 30 μM was used. As a control, the cells were cultured in a medium containing no compound. The number of cells was evaluated by CCK-8 assay (Cell Counting Kit-8, DOJINDO LABORATORIES) 72 hours after the start of the compound treatment, and the compound concentration (IC50 value) giving a proliferation inhibition rate of 50% as compared with the control was calculated.
On the technique in general: Formazan colour is commonly taken as a measure of viable cells.

T1 sequence (Q01650 whole entry): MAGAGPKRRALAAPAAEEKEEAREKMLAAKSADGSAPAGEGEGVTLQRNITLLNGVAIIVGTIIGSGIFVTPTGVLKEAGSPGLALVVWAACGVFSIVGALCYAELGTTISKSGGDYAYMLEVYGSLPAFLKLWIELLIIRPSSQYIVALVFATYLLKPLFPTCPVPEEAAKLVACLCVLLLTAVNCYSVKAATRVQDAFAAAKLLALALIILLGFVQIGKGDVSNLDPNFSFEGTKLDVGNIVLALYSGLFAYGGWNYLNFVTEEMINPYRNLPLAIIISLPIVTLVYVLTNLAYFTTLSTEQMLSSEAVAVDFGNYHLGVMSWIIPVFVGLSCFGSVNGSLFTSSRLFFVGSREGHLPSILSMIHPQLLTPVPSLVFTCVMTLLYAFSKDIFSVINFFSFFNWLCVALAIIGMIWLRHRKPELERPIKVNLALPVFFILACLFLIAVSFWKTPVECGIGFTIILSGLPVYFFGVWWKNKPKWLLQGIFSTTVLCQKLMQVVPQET
T1 sequence (P08195 102-630 partner): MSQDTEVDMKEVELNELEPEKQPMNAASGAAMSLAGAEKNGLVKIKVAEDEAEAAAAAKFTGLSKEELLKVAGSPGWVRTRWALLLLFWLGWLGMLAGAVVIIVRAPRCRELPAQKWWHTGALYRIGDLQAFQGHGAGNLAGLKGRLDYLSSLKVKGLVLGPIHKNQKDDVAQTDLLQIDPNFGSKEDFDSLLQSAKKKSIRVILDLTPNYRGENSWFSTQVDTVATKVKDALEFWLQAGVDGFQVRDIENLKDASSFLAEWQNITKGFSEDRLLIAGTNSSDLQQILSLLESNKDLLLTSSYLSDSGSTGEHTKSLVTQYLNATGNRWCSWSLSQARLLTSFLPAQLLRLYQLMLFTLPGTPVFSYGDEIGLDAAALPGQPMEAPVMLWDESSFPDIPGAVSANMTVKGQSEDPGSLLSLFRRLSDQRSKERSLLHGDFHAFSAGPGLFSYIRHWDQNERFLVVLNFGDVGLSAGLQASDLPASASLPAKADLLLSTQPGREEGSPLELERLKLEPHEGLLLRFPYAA

As for `Cl.NC1(C(=O)O)CCc2ccc(Oc3ccccc3-c3cccc(F)c3F)cc2C1` (centres unmarked) [Example 1-45, 2-Carboxy-7-((2′,3′-difluoro-[1,1′-biphenyl]-2-yl)oxy)-1,2,3,4-tetrahydronaphthalene-2-aminium chloride], the “antitumor effect by neutron irradiation (tumor volume 11 days after irradiation)” value in test [1] was “large antitumor effect”. Besides, in test [2], the “Assay Data: degree of [14C]L-leucine uptake inhibition compared with BCH” value is given as “A” and the “LAT1 inhibitory effect, compounds singled out (in words)” value (“LAT1 inhibitory effect … (in words)” for short) is given as “particularly remarkable effects”. The “sustained LAT1 inhibitory effect as compared with Example 1-1” value in test [3] was “more remarkable effect”. For the same molecule, in test [4], the IC50 was no more than 900 nM.
Turning to `Cl.NC1(C(=O)O)CCc2ccc(Oc3ccccc3-c3cccc(Cl)c3Cl)cc2C1` (centres unmarked) [Example 1-53, 2-carboxy-7-((2′,3′-dichloro-[1,1′-biphenyl]-2-yl)oxy)-1,2,3,4-tetrahydronaphthalene-2-aminium chloride], in test [2], the “Assay Data: degree of [14C]L-leucine uptake inhibition compared with BCH” value is recorded as “A” and the “LAT1 inhibitory effect … (in words)” value is given as “particularly remarkable effects”. Further, the “sustained LAT1 inhibitory effect as compared with Example 1-1” value in test [3] is given as “more remarkable effect”. For the same molecule, the IC50 in test [4] was no more than 900 nM.
For `Cl.NC1(C(=O)O)CCc2ccc(Oc3ccccc3-c3cccc(Cl)c3F)cc2C1` (centres unmarked) [Example 1-54, 2-carboxy-7-((3′-Chloro-2′-fluoro-[1,1′-biphenyl]-2-yl)oxy)-1,2,3,4-tetrahydronaphthalene-2-aminium chloride], in test [2], the “Assay Data: degree of [14C]L-leucine uptake inhibition compared with BCH” value is recorded as “A” and the “LAT1 inhibitory effect … (in words)” value is reported as “particularly remarkable effects”. Also, in test [3], the “sustained LAT1 inhibitory effect as compared with Example 1-1” value is given as “more remarkable effect”. Besides, in test [4], the IC50 was no more than 900 nM.
The matching figures for `Cc1cccc(-c2ccccc2Oc2ccc3c(c2)CC(N)(C(=O)O)CC3)c1F.Cl` (centres unmarked) [Example 1-55, 2-Carboxy-7-((2′-fluoro-3′-methyl-[1,1′-biphenyl]-2-yl)oxy)-1,2,3,4-tetrahydronaphthalene-2-aminium chloride]: “A”, “particularly remarkable effects”, “more remarkable effect” and no more than 900 nM.
Regarding `Cc1cccc(-c2ccccc2Oc2ccc3c(c2)CC(N)(C(=O)O)CC3)c1Cl.Cl` (centres unmarked) [Example 1-57, 2-carboxy-7-((2′-Chloro-3′-methyl-[1,1′-biphenyl]-2-yl)oxy)-1,2,3,4-tetrahydronaphthalene-2-aminium chloride], in test [2], the “Assay Data: degree of [14C]L-leucine uptake inhibition compared with BCH” value was “A” and the “LAT1 inhibitory effect … (in words)” value is “particularly remarkable effects”. Besides, in test [3], the “sustained LAT1 inhibitory effect as compared with Example 1-1” value is recorded as “more remarkable effect”. In addition, the IC50 in test [4] was no more than 900 nM.
As to `Cl.NC1(C(=O)O)CCc2ccc(Oc3ccccc3-c3ccc(F)c(F)c3F)cc2C1` (centres unmarked) [Example 1-58, 2-carboxy-7-((2′,3′,4′-trifluoro-[1,1′-biphenyl]-2-yl)oxy)-1,2,3,4-tetrahydronaphthalene-2-aminium chloride], in test [2], the “Assay Data: degree of [14C]L-leucine uptake inhibition compared with BCH” value is given as “A” and the “LAT1 inhibitory effect … (in words)” value is “particularly remarkable effects”. Also, the “sustained LAT1 inhibitory effect as compared with Example 1-1” value in test [3] is given as “more remarkable effect”. In addition, in test [4], the IC50 is no more than 900 nM.
With `Cl.NC1(C(=O)O)CCc2ccc(Oc3ccccc3-c3ccc(F)cc3F)cc2C1` (centres unmarked) [Example 1-59, 2-Carboxy-7-((2′,4′-difluoro-[1,1′-biphenyl]-2-yl)oxy)-1,2,3,4-tetrahydronaphthalene-2-aminium chloride], in test [2], the “Assay Data: degree of [14C]L-leucine uptake inhibition compared with BCH” value is on record as “A”. In test [3], the “sustained LAT1 inhibitory effect as compared with Example 1-1” value was “more remarkable effect”. Also, the IC50 in test [4] was no more than 900 nM.
Consider `C=Cc1cccc(-c2ccccc2Oc2ccc3c(c2)CC(N)(C(=O)O)CC3)c1.Cl` (centres unmarked) [Example 1-62, 2-carboxy-7-((3′-vinyl-[1,1′-biphenyl]-2-yl)oxy)-1,2,3,4-tetrahydronaphthalene-2-aminium chloride], for which the “Assay Data: degree of [14C]L-leucine uptake inhibition compared with BCH” value in test [2] is on record as “A”. The “sustained LAT1 inhibitory effect as compared with Example 1-1” value in test [3] is “more remarkable effect”. Also, in test [4], the IC50 is no more than 900 nM.
On to `Cl.NC1(C(=O)O)CCc2ccc(Oc3ccccc3-c3cc(F)cc(F)c3F)cc2C1` (centres unmarked) [Example 1-63, 2-carboxy-7-((2′,3′,5′-trifluoro-[1,1′-biphenyl]-2-yl)oxy)-1,2,3,4-tetrahydronaphthalene-2-aminium chloride], for which, in test [2], the “Assay Data: degree of [14C]L-leucine uptake inhibition compared with BCH” value is “A” and the “LAT1 inhibitory effect … (in words)” value is reported as “particularly remarkable effects”. Also, in test [3], the “sustained LAT1 inhibitory effect as compared with Example 1-1” value is given as “more remarkable effect”. The IC50 in test [4] was no more than 900 nM.

These data come from patent publication US20260035339A1, “TETRAHYDRONAPHTHALENE DERIVATIVE” (ATRANSEN PHARMA LTD., priority 2022, published 2026).
